Measurements taken from ChEMBL document CHEMBL3991601, “The target landscape of clinical kinase drugs” (Science, 2017).
Active and inactive are the calls of the source.

Columns and labels:
[1] = molecular target: T1, Peroxisomal acyl-coenzyme A oxidase 1 (Homo sapiens, UniProt Q15067)
T1 sequence (Q15067 whole entry): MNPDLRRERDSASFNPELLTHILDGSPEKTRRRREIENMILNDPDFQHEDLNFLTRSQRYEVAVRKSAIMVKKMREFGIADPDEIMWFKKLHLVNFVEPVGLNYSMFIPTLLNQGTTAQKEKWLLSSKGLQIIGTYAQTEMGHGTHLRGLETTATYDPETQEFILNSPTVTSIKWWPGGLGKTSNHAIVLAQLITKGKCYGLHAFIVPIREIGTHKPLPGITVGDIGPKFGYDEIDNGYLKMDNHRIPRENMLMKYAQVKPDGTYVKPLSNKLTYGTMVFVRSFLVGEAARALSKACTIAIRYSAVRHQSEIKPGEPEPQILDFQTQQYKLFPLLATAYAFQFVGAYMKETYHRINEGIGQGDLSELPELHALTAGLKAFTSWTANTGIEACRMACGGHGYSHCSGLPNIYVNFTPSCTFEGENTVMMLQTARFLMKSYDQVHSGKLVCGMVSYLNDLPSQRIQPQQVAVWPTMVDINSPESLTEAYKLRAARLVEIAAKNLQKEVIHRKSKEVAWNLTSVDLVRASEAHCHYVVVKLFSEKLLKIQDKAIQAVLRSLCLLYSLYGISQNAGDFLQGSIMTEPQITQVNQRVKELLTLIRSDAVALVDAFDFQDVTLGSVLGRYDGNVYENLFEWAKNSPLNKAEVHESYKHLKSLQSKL

[2] = molecular target: Calcium/calmodulin-dependent protein kinase type II subunit delta (Homo sapiens, UniProt Q13557)
Sequence of Calcium/calmodulin-dependent protein kinase type II subunit delta (Q13557 whole entry): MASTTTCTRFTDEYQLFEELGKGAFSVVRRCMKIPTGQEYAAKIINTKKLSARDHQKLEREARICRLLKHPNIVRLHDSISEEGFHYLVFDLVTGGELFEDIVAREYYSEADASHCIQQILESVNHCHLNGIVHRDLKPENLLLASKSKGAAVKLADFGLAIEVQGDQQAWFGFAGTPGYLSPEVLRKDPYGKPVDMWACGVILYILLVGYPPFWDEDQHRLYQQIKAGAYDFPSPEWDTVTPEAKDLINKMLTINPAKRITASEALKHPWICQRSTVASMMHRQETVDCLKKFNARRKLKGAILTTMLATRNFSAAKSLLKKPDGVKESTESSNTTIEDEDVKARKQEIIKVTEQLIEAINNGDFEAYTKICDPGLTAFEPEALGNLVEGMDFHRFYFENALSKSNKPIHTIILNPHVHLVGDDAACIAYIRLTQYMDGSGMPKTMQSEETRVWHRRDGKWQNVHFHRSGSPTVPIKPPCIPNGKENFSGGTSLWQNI

[3] = molecular target: Tyrosine-protein kinase CSK (Homo sapiens, UniProt P41240)
Sequence of Tyrosine-protein kinase CSK (P41240 whole entry): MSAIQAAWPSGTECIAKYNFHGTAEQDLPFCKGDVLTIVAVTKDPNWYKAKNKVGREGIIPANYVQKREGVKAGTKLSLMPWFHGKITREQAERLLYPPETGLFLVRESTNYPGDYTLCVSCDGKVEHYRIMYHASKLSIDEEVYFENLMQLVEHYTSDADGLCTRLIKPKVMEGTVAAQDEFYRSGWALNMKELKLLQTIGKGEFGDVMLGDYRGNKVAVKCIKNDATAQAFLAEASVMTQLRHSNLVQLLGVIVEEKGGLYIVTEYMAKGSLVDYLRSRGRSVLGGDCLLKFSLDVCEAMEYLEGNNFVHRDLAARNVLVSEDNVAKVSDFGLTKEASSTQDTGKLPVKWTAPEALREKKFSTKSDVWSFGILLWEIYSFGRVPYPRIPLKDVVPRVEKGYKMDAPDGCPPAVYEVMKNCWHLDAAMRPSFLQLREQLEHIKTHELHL

GTP-binding protein 4 = GTP-binding protein 4 (Homo sapiens, UniProt Q9BZE4)
[4] = molecular target: T2, Phosphorylase b kinase gamma catalytic chain, liver/testis isoform (Homo sapiens, UniProt P15735)
T2 sequence (P15735 whole entry): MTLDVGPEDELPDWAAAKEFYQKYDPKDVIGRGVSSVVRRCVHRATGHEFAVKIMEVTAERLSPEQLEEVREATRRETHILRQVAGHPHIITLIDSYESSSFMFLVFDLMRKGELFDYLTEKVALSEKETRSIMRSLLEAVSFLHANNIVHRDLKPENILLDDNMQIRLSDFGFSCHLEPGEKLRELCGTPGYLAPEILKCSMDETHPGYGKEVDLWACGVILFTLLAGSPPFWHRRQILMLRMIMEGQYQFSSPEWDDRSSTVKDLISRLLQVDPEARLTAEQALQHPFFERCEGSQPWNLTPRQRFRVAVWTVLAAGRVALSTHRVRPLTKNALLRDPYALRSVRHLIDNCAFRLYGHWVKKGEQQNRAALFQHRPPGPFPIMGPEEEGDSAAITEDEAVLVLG

[5] = molecular target: T3, Ras-related protein Rab-10 (Homo sapiens, UniProt P61026)
T3 sequence (P61026 whole entry): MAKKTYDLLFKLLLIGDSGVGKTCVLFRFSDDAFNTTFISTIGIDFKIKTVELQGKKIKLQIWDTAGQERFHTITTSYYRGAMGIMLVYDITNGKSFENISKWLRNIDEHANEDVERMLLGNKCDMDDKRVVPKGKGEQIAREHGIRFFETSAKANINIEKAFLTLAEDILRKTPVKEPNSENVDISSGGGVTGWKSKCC

[6] = molecular target: T4, Exosome RNA helicase MTR4 (Homo sapiens, UniProt P42285)
T4 sequence (P42285 whole entry): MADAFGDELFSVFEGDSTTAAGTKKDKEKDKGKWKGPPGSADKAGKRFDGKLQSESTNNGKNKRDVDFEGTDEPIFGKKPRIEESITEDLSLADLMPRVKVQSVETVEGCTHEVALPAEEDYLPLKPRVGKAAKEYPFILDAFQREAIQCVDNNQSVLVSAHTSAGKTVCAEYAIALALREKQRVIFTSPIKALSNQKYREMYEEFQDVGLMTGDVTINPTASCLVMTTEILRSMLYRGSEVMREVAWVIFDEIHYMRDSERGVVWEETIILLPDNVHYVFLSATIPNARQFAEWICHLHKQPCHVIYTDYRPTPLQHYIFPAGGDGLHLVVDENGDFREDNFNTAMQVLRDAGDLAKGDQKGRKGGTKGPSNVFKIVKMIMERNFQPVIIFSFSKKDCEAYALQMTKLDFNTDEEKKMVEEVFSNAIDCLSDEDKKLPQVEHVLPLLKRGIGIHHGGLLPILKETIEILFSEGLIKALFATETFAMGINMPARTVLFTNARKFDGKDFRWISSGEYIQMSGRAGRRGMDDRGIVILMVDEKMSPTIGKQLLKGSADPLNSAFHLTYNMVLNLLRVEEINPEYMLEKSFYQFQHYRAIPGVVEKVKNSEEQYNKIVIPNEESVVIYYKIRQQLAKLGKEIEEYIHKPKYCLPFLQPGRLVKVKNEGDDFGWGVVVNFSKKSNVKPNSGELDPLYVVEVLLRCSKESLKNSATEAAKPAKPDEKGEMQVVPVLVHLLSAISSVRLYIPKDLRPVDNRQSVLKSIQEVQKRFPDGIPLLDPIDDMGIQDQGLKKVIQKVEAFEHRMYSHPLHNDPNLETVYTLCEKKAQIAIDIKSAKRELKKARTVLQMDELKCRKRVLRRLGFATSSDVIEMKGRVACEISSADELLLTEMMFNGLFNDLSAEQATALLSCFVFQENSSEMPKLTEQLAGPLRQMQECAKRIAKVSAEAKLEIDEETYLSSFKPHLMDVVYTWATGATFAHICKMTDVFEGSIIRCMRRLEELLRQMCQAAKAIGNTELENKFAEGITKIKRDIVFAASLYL

Activated CDC42 kinase 1 = Activated CDC42 kinase 1 (Homo sapiens, UniProt Q07912)
Sequence of Activated CDC42 kinase 1 (Q07912 whole entry): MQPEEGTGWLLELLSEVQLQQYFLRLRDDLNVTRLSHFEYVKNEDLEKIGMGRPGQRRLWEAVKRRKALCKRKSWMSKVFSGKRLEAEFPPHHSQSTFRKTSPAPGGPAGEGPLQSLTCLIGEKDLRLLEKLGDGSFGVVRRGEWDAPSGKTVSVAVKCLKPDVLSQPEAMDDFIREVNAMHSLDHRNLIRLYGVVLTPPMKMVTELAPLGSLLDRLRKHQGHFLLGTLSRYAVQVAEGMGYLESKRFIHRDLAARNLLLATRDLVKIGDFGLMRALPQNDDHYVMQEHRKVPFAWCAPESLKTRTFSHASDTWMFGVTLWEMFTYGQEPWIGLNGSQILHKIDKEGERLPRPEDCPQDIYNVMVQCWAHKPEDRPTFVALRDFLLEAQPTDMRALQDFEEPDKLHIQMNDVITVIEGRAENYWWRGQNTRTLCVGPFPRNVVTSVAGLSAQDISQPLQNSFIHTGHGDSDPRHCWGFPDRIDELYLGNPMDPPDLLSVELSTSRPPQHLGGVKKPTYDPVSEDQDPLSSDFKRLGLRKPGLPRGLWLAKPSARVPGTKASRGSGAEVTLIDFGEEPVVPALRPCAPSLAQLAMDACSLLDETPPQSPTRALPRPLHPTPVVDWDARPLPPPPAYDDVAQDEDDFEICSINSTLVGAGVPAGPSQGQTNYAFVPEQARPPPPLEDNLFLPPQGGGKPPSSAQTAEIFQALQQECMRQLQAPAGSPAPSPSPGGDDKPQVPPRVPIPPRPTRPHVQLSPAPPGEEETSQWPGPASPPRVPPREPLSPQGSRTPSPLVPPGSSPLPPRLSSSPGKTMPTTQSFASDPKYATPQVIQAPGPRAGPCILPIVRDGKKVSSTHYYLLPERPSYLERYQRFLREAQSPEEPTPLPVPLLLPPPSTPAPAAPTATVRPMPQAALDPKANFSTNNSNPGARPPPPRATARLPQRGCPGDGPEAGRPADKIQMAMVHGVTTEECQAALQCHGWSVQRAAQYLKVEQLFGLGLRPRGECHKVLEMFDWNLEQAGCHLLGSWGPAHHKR

[7] = molecular target: Elongation factor Tu, mitochondrial (Homo sapiens, UniProt P49411)
[8] = molecular target: Mitogen-activated protein kinase kinase kinase 20 (Homo sapiens, UniProt Q9NYL2)
Sequence of Mitogen-activated protein kinase kinase kinase 20 (Q9NYL2 whole entry): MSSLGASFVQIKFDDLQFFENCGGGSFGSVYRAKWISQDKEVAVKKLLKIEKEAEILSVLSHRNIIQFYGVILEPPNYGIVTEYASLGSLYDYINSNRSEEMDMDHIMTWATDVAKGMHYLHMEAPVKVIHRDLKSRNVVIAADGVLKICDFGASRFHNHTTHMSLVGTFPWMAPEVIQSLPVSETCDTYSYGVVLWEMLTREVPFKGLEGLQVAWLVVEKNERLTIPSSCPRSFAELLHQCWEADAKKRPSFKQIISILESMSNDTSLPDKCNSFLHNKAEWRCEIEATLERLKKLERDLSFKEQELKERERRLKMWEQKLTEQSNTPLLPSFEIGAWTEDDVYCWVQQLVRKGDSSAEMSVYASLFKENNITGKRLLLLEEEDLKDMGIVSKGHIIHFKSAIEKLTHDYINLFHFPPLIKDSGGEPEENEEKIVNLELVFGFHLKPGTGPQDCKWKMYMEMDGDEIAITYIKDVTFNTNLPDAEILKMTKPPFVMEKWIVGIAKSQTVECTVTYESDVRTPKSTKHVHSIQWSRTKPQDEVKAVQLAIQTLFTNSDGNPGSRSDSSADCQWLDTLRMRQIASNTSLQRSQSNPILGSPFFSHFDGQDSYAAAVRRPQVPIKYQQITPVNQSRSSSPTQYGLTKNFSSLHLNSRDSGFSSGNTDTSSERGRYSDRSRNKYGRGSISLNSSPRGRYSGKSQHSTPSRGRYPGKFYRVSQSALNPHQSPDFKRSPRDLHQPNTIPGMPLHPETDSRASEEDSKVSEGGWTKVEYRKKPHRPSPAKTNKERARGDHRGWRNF
Also: in the data inactive means no Kd found up to 30 µM.

SMILES | Kd [1] | Kd [2] | Kd [3] | Kd (GTP-binding protein 4) | Kd [4] | Kd [5] | Kd [6] | Kd (Activated CDC42 kinase 1) | Kd [7] | Kd [8]
CCCS(=O)(=O)Nc1ccc(F)c(C(=O)c2c[nH]c3ncc(-c4ccc(Cl)cc4)cc23)c1F [VEMURAFENIB] | > 30 µM (inactive) | > 30 µM (inactive) | > 30 µM (inactive) | > 30 µM (inactive) | > 30 µM (inactive) | > 30 µM (inactive) | > 30 µM (inactive) | > 30 µM (inactive) | > 30 µM (inactive) | 0.316 µM (active)
CNC(=O)c1ccc(C)c(-n2c(C)cc(OCc3ccc(F)cc3F)c(Br)c2=O)c1 [PH-797804] | > 30 µM (inactive) | > 30 µM (inactive) | > 30 µM (inactive) | > 30 µM (inactive) | > 30 µM (inactive) | > 30 µM (inactive) | > 30 µM (inactive) | > 30 µM (inactive) | > 30 µM (inactive) | > 30 µM (inactive)
C[C@@H](c1ccc2nccn2c1)n1nnc2ncc(-c3cnn(C)c3)nc21 [SAVOLITINIB] | > 30 µM (inactive) | > 30 µM (inactive) | > 30 µM (inactive) | > 30 µM (inactive) | > 30 µM (inactive) | > 30 µM (inactive) | > 30 µM (inactive) | > 30 µM (inactive) | > 30 µM (inactive) | > 30 µM (inactive)
CN1CCC(COc2cnc(-c3cccc(Cn4nc(-c5cccc(C#N)c5)ccc4=O)c3)nc2)CC1 [TEPOTINIB] | > 30 µM (inactive) | > 30 µM (inactive) | > 30 µM (inactive) | > 30 µM (inactive) | > 30 µM (inactive) | > 30 µM (inactive) | > 30 µM (inactive) | > 30 µM (inactive) | > 30 µM (inactive) | > 30 µM (inactive)
COc1cc(N2CCC(N3CCN(C)CC3)CC2)ccc1Nc1ncnc(Nc2ccccc2S(=O)(=O)C(C)C)n1 [ASP-3026] | > 30 µM (inactive) | 0.704 µM (active) | > 30 µM (inactive) | 0.009 µM | > 30 µM (inactive) | > 30 µM (inactive) | > 30 µM (inactive) | 0.005 µM (active) | > 30 µM (inactive) | > 30 µM (inactive)
Cc1cc2c(F)c(Oc3ncnn4cc(OC[C@@H](C)OC(=O)[C@H](C)N)c(C)c34)ccc2[nH]1 [BRIVANIB ALANINATE] | > 30 µM (inactive) | > 30 µM (inactive) | > 30 µM (inactive) | > 30 µM (inactive) | > 30 µM (inactive) | > 30 µM (inactive) | > 30 µM (inactive) | > 30 µM (inactive) | > 30 µM (inactive) | > 30 µM (inactive)
C=CC(=O)N1CCC(Oc2cc3c(Nc4ccc(Cl)c(Cl)c4F)ncnc3cc2OC)CC1 [POZIOTINIB] | > 30 µM (inactive) | > 30 µM (inactive) | > 30 µM (inactive) | > 30 µM (inactive) | > 30 µM (inactive) | > 30 µM (inactive) | > 30 µM (inactive) | > 30 µM (inactive) | > 30 µM (inactive) | > 30 µM (inactive)
Cn1cc(-c2ccc(F)c(C(F)(F)F)c2)nc1C1CCN(c2ncnc3[nH]ncc23)CC1 [LY-2584702] | > 30 µM (inactive) | > 30 µM (inactive) | > 30 µM (inactive) | > 30 µM (inactive) | > 30 µM (inactive) | > 30 µM (inactive) | > 30 µM (inactive) | > 30 µM (inactive) | > 30 µM (inactive) | > 30 µM (inactive)
CC[C@H](Nc1ncnc2[nH]cnc12)c1nc2cccc(F)c2c(=O)n1-c1ccccc1 [IDELALISIB] | > 30 µM (inactive) | > 30 µM (inactive) | > 30 µM (inactive) | > 30 µM (inactive) | > 30 µM (inactive) | > 30 µM (inactive) | > 30 µM (inactive) | > 30 µM (inactive) | > 30 µM (inactive) | > 30 µM (inactive)
O=C1NC(=O)/C(=C/c2ccc3nccc(-c4ccncc4)c3c2)S1 [GSK-1059615] | > 30 µM (inactive) | > 30 µM (inactive) | > 30 µM (inactive) | > 30 µM (inactive) | > 30 µM (inactive) | > 30 µM (inactive) | > 30 µM (inactive) | > 30 µM (inactive) | > 30 µM (inactive) | > 30 µM (inactive)
CNC(=O)c1cc(Oc2ccc(NC(=O)Nc3ccc(Cl)c(C(F)(F)F)c3)c(F)c2)ccn1 [REGORAFENIB] | > 30 µM (inactive) | > 30 µM (inactive) | > 30 µM (inactive) | > 30 µM (inactive) | > 30 µM (inactive) | > 30 µM (inactive) | > 30 µM (inactive) | > 30 µM (inactive) | > 30 µM (inactive) | 0.274 µM (active)
CN1N=C(N)c2cn([C@@H]3O[C@H](COP(=O)(O)O)[C@@H](O)[C@H]3O)c3ncnc1c23 [TRICIRIBINE PHOSPHATE] | > 30 µM (inactive) | > 30 µM (inactive) | > 30 µM (inactive) | > 30 µM (inactive) | > 30 µM (inactive) | > 30 µM (inactive) | > 30 µM (inactive) | > 30 µM (inactive) | > 30 µM (inactive) | > 30 µM (inactive)
CN1CCC(CNc2ccc3ncc(-c4cccc(OC(F)(F)F)c4)n3n2)CC1 [SGI-1776] | > 30 µM (inactive) | > 30 µM (inactive) | > 30 µM (inactive) | > 30 µM (inactive) | > 30 µM (inactive) | > 30 µM (inactive) | > 30 µM (inactive) | > 30 µM (inactive) | > 30 µM (inactive) | > 30 µM (inactive)
CC(C)Nc1cc(-c2c[nH]c(C(=O)N[C@H](CO)c3cccc(Cl)c3)c2)c(Cl)cn1 [ULIXERTINIB] | > 30 µM (inactive) | > 30 µM (inactive) | > 30 µM (inactive) | > 30 µM (inactive) | > 30 µM (inactive) | > 30 µM (inactive) | > 30 µM (inactive) | > 30 µM (inactive) | > 30 µM (inactive) | > 30 µM (inactive)
